In patent publication US12581252B2, “Substituted pyrrolo[3,4-b]pyridines as PI3K-α inhibitors” (Relay Therapeutics, Inc., priority 2020, dated 2026):

Biological target: H1047R PIK3CA enzyme (Homo sapiens, UniProt P42336, H1047R)
Assay: ADP-Glo Biochemical PIK3CA Kinase Assay

Sequence of H1047R PIK3CA enzyme (P42336 whole entry H1047R): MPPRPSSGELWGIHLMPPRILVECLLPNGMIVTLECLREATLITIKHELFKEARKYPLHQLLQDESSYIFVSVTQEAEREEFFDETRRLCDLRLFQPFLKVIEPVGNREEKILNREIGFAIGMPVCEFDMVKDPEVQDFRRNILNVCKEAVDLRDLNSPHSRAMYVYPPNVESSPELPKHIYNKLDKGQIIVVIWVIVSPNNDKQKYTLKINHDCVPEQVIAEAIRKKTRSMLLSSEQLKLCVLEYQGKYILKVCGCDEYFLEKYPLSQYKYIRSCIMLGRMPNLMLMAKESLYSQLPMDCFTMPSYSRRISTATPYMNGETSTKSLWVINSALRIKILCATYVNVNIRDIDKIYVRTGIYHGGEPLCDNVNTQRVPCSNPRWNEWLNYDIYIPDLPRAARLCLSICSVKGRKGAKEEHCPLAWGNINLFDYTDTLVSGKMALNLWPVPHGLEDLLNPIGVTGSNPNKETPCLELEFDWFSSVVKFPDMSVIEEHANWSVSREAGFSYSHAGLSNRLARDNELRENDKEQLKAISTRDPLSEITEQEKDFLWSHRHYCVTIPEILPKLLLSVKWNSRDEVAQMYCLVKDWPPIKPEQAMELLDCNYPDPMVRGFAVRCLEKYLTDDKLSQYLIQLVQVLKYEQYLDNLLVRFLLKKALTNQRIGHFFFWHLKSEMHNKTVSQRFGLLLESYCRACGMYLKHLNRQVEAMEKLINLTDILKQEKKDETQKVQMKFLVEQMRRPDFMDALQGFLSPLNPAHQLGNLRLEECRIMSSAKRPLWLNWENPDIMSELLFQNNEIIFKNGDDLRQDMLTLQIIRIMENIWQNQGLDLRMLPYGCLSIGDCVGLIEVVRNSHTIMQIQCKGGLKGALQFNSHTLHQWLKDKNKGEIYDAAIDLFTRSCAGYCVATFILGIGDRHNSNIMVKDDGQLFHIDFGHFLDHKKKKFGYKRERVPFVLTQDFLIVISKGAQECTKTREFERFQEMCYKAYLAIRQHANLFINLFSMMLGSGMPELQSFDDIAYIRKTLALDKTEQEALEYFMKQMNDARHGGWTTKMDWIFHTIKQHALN
Sequence of H1047R PIK3CA enzyme (P27986 whole entry partner): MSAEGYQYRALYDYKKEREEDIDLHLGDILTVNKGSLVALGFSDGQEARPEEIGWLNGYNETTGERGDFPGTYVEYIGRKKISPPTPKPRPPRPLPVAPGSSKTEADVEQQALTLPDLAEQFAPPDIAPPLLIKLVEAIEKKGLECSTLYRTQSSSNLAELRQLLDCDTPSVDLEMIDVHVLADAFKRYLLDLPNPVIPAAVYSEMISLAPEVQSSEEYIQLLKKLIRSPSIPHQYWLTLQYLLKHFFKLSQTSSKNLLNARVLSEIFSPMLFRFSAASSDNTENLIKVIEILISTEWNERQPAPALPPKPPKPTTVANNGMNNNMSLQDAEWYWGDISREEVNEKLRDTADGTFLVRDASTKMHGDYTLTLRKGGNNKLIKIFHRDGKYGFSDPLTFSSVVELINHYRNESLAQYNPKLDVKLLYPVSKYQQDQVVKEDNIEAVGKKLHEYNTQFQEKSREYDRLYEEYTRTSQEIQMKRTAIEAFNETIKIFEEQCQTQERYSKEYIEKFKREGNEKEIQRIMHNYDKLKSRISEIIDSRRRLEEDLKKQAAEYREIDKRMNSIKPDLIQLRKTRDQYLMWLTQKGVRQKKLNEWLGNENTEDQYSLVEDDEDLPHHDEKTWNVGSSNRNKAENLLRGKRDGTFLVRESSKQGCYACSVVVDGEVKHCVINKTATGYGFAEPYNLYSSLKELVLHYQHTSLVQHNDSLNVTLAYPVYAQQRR

IC50 [µM] | Compound
1 to 10 | O=C1N[C@H](c2cc(F)ccc2Cl)c2c(NC(=O)[C@@H]3CCC[C@H](C(F)(F)F)C3)cc(-c3ccc4ncnn4c3)cc21 [Compound I-2031]
≤ 0.1 | Cc1ccc(C(=O)Nc2cc(-c3ccc4ncnn4c3)cc3c2[C@H](c2cc(F)ccc2Cl)NC3=O)cc1C(F)(F)F (stereo in doubt) [Compound I-1167]
10 to 100 | O=C1NC(c2cc(F)ccc2Cl)c2c(NC(=O)c3cccn4ccnc34)cc(Br)cc21 (centres unmarked) [Compound I-562]
≤ 0.1 | O=C(CO)Nc1cc(NC(=O)c2cc(F)cc(C(F)(F)F)c2)c2c(c1)C(=O)N[C@H]2c1cc(F)ccc1Cl [Compound I-511]
≤ 0.1 | O=C(Nc1cc(N[C@H]2C[C@@H](O)C2)cc2c1C(c1cc(F)ccc1Cl)NC2=O)c1cc(F)cc(C(F)(F)F)c1 (mixture of isomers) [Compound I-478]
0.1 to 0.5 | CC(=O)N1CCC12CN(c1cc(NC(=O)c3cc(F)cc(C(F)(F)F)c3)c3c(c1)C(=O)NC3c1cc(F)ccc1Cl)C2 (centres unmarked) [Compound I-1387]
10 to 100 | Cc1nc2ccccn2c1CC(=O)Nc1cc(Br)cc2c1C(c1cc(F)ccc1Cl)NC2=O (centres unmarked) [Compound I-603]
≤ 0.1 | N#Cc1cnc2ccc(-c3cc(NC(=O)c4cc(F)cc(C(F)(F)F)c4)c4c(c3)C(=O)NC4c3cc(F)ccc3Cl)cn12 (centres unmarked) [Compound I-1410]
≤ 0.1 | O=C(Nc1cc(CS(=O)(=O)N2CCOCC2)cc2c1C(c1cc(F)ccc1Cl)NC2=O)c1cc(F)cc(C(F)(F)F)c1 (centres unmarked) [Compound I-1364]
10 to 100 | CC(C)(O)c1cc(NC(=O)N2CCc3ccccc32)c2c(c1)C(=O)N[C@@H]2c1cc(F)ccc1Cl [Compound I-714]
≤ 0.1 | COc1ncc(-c2cc(NC(=O)c3cc(F)cc(C(F)(F)F)c3)c3c(c2)C(=O)NC3c2cc(F)ccc2Cl)cc1F (centres unmarked) [Compound I-1419]
≤ 0.1 | O=C(Nc1cc(CN2CC(F)(F)C2)cc2c1C(c1cc(F)ccc1Cl)NC2=O)c1cc(F)cc(C(F)(F)F)c1 (centres unmarked) [Compound I-348, N-(3-(2-Chloro-5-fluorophenyl)-6-((3,3-difluoroazetidin-1-yl)methyl)-1-oxoisoindolin-4-yl)-3-fluoro-5-(trifluoromethyl)benzamide]
1 to 10 | Cc1cccc(C(=O)Nc2cc(Br)cc3c2C(c2cc(F)ccc2Cl)NC3=O)c1 (centres unmarked) [Compound I-520]
10 to 100 | O=C1N[C@@H](c2cc(F)ccc2Cl)c2c(NC(=O)[C@H]3CCC[C@H](OC(F)(F)F)C3)cccc21 (single isomer, unassigned) [Compound I-2212]
≤ 0.1 | O=C(Nc1cc(-c2ccc3nc(Cl)nn3c2)cc2c1C(c1cc(F)ccc1Cl)NC2=O)c1cc(F)cc(C(F)(F)F)c1 (centres unmarked) [Compound I-1575]
10 to 100 | O=C(Nc1cccc2c1C(c1ccc3cn[nH]c3c1)NC2=O)c1cc(F)cc(C(F)(F)F)c1 (centres unmarked) [Compound I-844]
0.5 to 1 | CC1(Nc2cc(NC(=O)c3cc(F)cc(C(F)(F)F)c3)c3c(c2)C(=O)N[C@@H]3c2cc(F)ccc2Cl)COC1 [Compound I-829]
≤ 0.1 | C[C@@]1(O)CN(C(=O)Nc2cc(Br)cc3c2C(c2cc(F)ccc2Cl)NC3=O)c2ccccc21 (single isomer, unassigned) [Compound I-1511]
10 to 100 | Cc1ccccc1C1NC(=O)c2nccc(NC(=O)N3CCc4cnccc43)c21 (centres unmarked) [Compound I-248]
≤ 0.1 | Nc1nnc2ccc(-c3cc(NC(=O)c4cc(F)cc(C(F)(F)F)c4)c4c(c3)C(=O)N[C@H]4c3cc(F)ccc3Cl)cn12 [Compound I-1449]
≤ 0.1 | N#Cc1cnn(-c2cc(NC(=O)c3cc(F)cc(C(F)(F)F)c3)c3c(c2)C(=O)NC3c2cc(F)ccc2Cl)c1 (centres unmarked) [Compound I-1140]
10 to 100 | COc1cccc2c(C(=O)Nc3cccc4c3C(c3ccccc3C)NC4=O)csc12 (centres unmarked) [Compound I-198]
10 to 100 | O=C1N[C@H](c2cc(F)ccc2Cl)c2c(NC(=O)[C@H]3C[C@H]3C(F)(F)F)cc(Br)cc21 (racemic) [Compound I-1854]
1 to 10 | O=C1N[C@@H](c2cc(F)ccc2Cl)c2c(NC(=O)N3C[C@H](O)C[C@@H]3CC(F)(F)F)cccc21 (racemic) [Compound I-2162]
1 to 10 | CC1(Cc2cc(NC(=O)N3C[C@](O)(C(F)(F)F)c4cc(F)ccc43)c3c(c2)C(=O)N[C@H]3c2cc(F)ccc2Cl)COC1 (single isomer, unassigned) [Compound I-2659]
10 to 100 | O=C1NC(c2cc(F)ccc2Cl)c2c(NC(=O)N3CCOCC(F)(F)C3)cc(Br)cc21 (centres unmarked) [Compound I-698]
0.1 to 0.5 | Cc1ccccc1C1NC(=O)c2nccc(NC(=O)c3csc4ccccc34)c21 (centres unmarked) [Compound I-7]
10 to 100 | O=C1NC(c2cc(F)ccc2Cl)c2c1cccc2-n1[nH]c(=O)c2ccccc21 (centres unmarked) [Compound I-1714]
1 to 10 | [2H][C@]1(c2cc(F)ccc2Cl)NC(=O)c2cccc(NC(=O)N3C[C@@](O)(C(F)(F)F)c4cc(F)ccc43)c21 (single isomer, unassigned) [Compound I-2683]
≤ 0.1 | O=C(Nc1cc(F)cc2c1C(c1cc(F)ccc1Cl)NC2=O)c1cc(F)cc(C(F)(F)F)c1 (centres unmarked) [Compound I-641]

Further lines, the molecule ahead of its results:

Compound | IC50 [µM]
O=C(Nc1cc(-c2ccc3nccn3c2)cc2c1[C@@H](c1cc(F)ccc1Cl)NC2=O)c1cc(F)cc(C(F)(F)F)c1 [Compound I-826] | 0.5 to 1
O=C(Nc1cc(Br)cc2c1C(c1cc(F)ccc1Cl)NC2=O)c1cc(F)cc(S(F)(F)(F)(F)F)c1 (centres unmarked) [Compound I-774] | ≤ 0.1
[2H]c1nc2ccc(-c3cc(NC(=O)c4cc(F)cc(C(F)(F)F)c4)c4c(c3)C(=O)NC4c3cc(F)ccc3Cl)cn2n1 (centres unmarked) [Compound I-1589] | ≤ 0.1
O=C(Nc1cc(C(F)(F)F)ccc1Cl)Nc1cc(Br)cc2c1C(c1cc(F)ccc1Cl)NC2=O (centres unmarked) [Compound I-1176] | 0.1 to 0.5
CC(C)(O)c1cc(NC(=O)N2C[C@@H](O)c3ccccc32)c2c(c1)C(=O)N[C@@H]2c1cc(F)ccc1Cl (single isomer, unassigned) [Compound I-2122] | 10 to 100
N#CCOc1cc(-c2ccc3ncnn3c2)cc2c1C(c1cc(F)ccc1Cl)NC2=O (centres unmarked) [Compound I-2022] | 10 to 100
O=C(Nc1cc(OC2CCOCC2)cc2c1C(c1cc(F)ccc1Cl)NC2=O)c1cc(F)cc(C(F)(F)F)c1 (centres unmarked) [Compound I-1135] | ≤ 0.1
O=C1NC(c2ccncc2Cl)c2c(NC(=O)c3csc4ccccc34)cccc21 (centres unmarked) [Compound I-101] | 1 to 10
O=C(Nc1cc(NC(=O)C2CS(=O)(=O)C2)cc2c1C(c1cc(F)ccc1Cl)NC2=O)c1cc(F)cc(C(F)(F)F)c1 (centres unmarked) [Compound I-351] | ≤ 0.1
O=C1N[C@@H](c2cc(F)ccc2Cl)c2c(NC(=O)[C@H]3CC(C(F)(F)F)C[C@@H](O)C3)cc(Br)cc21 (single isomer, unassigned) [Compound I-2275] | 10 to 100
CN1CCN(C(=O)Nc2cc(Br)cc3c2[C@@H](c2cc(F)ccc2Cl)NC3=O)CC1(C)C (single isomer, unassigned) [Compound I-2241] | 10 to 100
O=C(Nc1cccc2c1[C@H](CC1CCCCC1)NC2=O)c1cc(F)cc(C(F)(F)F)c1 [Compound I-2058] | 0.5 to 1
O=C1NC(c2cc(F)ccc2Cl)c2c(NC(=O)N3CCc4c(Cl)cccc43)cccc21 (centres unmarked) [Compound I-2442] | 1 to 10
CC(=O)N1CCC[C@H]1COc1cc(NC(=O)c2cc(F)cc(C(F)(F)F)c2)c2c(c1)C(=O)NC2c1cc(F)ccc1Cl (single isomer, unassigned) [Compound I-1466] | ≤ 0.1
Nc1cc(NC(=O)N2C[C@H](O)c3ccccc32)c2c(c1)C(=O)N[C@@H]2c1cc(F)ccc1Cl (single isomer, unassigned) [Compound I-2130] | 1 to 10
O=C(Nc1cc(Br)cc2c1C(c1cc(F)ccc1Cl)NC2=O)c1cnn(-c2ccccc2)c1 (centres unmarked) [Compound I-561] | 10 to 100

Compound | IC50 [µM]
C[C@@]1(C(=O)Nc2cc(Br)cc3c2[C@@H](c2cc(F)ccc2Cl)NC3=O)CCC[C@H](C(F)(F)F)C1 (single isomer, unassigned) [Compound I-2264] | 0.1 to 0.5
COc1cccc2scc(C(=O)Nc3cccc4c3C(c3ccccc3C)NC4=O)c12 (centres unmarked) [Compound I-78] | 10 to 100
O=C1N[C@H](c2cc(F)ccc2Cl)c2c(NC(=O)N3CCC[C@@](O)(C(F)(F)F)C3)cccc21 (single isomer, unassigned) [Compound I-2113] | 10 to 100
Cc1ccccc1C1NC(=O)c2nccc(NC(=O)N3CCc4ccc(F)cc43)c21 (centres unmarked) [Compound I-177] | 0.5 to 1
CC(C)(C#N)n1cc(-c2cc(NC(=O)c3cc(F)cc(C(F)(F)F)c3)c3c(c2)C(=O)N[C@@H]3c2cc(F)ccc2Cl)cn1 [Compound I-1660] | 0.5 to 1
O=C1NC(c2cc(F)ccc2Cl)c2c(Nc3n[nH]c4c(C(F)(F)F)cc(F)cc34)cc(-c3ccc4ncnn4c3)cc21 (centres unmarked) [Compound I-2049] | ≤ 0.1
CN1C(=O)CC[C@@H]1COc1cc(NC(=O)c2cc(F)cc(C(F)(F)F)c2)c2c(c1)C(=O)N[C@@H]2c1cc(F)ccc1Cl (single isomer, unassigned) [Compound I-1569] | 10 to 100
O=C(Nc1cc(O[C@H]2CC[C@@H]2O)cc2c1C(c1cc(F)ccc1Cl)NC2=O)c1cc(F)cc(C(F)(F)F)c1 (mixture of isomers) [Compound I-1289] | 0.1 to 0.5
O=C1NC(c2ccccc2OC(F)(F)F)c2c(NC(=O)c3csc4ccccc34)ccnc21 (centres unmarked) [Compound I-70] | 1 to 10
O=C(Nc1cc(Cn2ccnc2)cc2c1C(c1cc(F)ccc1Cl)NC2=O)c1cc(F)cc(C(F)(F)F)c1 (centres unmarked) [Compound I-1430] | ≤ 0.1
O=C1NC(c2cc(F)ccc2Cl)c2c(NC(=O)N3CCc4ccccc4C3)cccc21 (centres unmarked) [Compound I-2307] | 10 to 100
Cn1c(Cl)cc(C(=O)Nc2cc(Br)cc3c2[C@@H](c2cc(F)ccc2Cl)NC3=O)cc1=O [Compound I-2096] | 10 to 100
O=C(Nc1cc(Br)cc2c1C(c1cc(F)ccc1Cl)NC2=O)c1ccc(C(F)F)cc1 (centres unmarked) [Compound I-572] | 1 to 10
Nc1c(Cl)cc(F)cc1C(=O)Nc1cc(Br)cc2c1C(c1cc(F)ccc1Cl)NC2=O (centres unmarked) [Compound I-843] | 0.1 to 0.5
N#Cc1cc(Oc2cc(NC(=O)c3cc(F)cc(C(F)(F)F)c3)c3c(c2)C(=O)NC3c2cc(F)ccc2Cl)ccn1 (centres unmarked) [Compound I-1130] | ≤ 0.1
N#CCCc1cc(NC(=O)c2cc(F)cc(C(F)(F)F)c2)c2c(c1)C(=O)N[C@@H]2c1cc(F)ccc1Cl (stereo in doubt) [Compound I-2170] | 10 to 100
